The target of the assay is T1, purified human COMT enzyme of the Val158 variant (membrane-bound MB-COMT) (Homo sapiens, UniProt P21964).
T1 construct: 6xHis or 10xHis (C)
T1 sequence (P21964 1-271): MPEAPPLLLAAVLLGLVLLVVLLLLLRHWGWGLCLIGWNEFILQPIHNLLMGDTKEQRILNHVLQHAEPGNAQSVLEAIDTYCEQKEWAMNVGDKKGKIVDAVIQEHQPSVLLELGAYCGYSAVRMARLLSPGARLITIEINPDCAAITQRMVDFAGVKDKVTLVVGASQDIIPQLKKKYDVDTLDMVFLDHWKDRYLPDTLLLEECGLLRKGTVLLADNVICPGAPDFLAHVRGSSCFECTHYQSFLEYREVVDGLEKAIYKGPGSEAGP
Nature of the assay: MB-COMT inhibition, Esculetin or Fluorescence Polarization assay. The format is biochemical. On the technique in general: Polarisation of emitted light reports the rotation of a fluorescent probe.

The mark [1] stands for this setting: Esculetin or Fluorescence Polarization assay, human Val158 variant, read-out: MB-COMT IC50-.

pIC50: −log10 of the molar value. Where two headings read alike, the source gives them in different places.

One may read the pIC50 as the IC50 on a negative log10 scale, so that one unit is a factor of ten. `O=c1cc(C(O)C(F)(F)F)n(-c2cccc(-c3cccc4ncccc34)c2)cc1O` (centres unmarked) [Example 15, 5-hydroxy-1-[3-(quinolin-5-yl)phenyl]-2-(2,2,2-trifluoro-1-hydroxyethyl)pyridin-4(1H)-one]: the pIC50 under setting [1] is 7.15.

`COc1ccc(-c2nc3cc(-n4ccc(=O)c(O)c4)ccc3[nH]2)cc1` [Example 2, 3-hydroxy-1-[2-(4-methoxyphenyl)-1H-benzimidazol-5-yl]pyridin-4(1H)-one] had a pIC50 of 7.19.

On to `CC(O)c1cc(=O)c(O)cn1-c1cccc(-c2c(Cl)cnc3[nH]ccc23)c1` (single isomer, unassigned) [Example 13, 1-[3-(5-chloro-1H-pyrrolo[2,3-b]pyridin-4-yl)phenyl]-5-hydroxy-2-(1-hydroxyethyl)-pyridin-4(1H)-one], for which, under setting [1], the pIC50 is 7.39.

Take `Nc1cc(=O)c(O)cn1-c1cccc(-c2ccccc2)c1` [Example 3, 2-Amino-1-(biphenyl-3-yl)-5-hydroxypyridin-4(1H)-one]: under setting [1], the pIC50 was 7.12.

Take `Cc1cc(=O)c(O)cn1-c1cccc2c1ncn2Cc1c(F)cccc1Cl` [Example 10, 1-[1-(2-Chloro-6-fluorobenzyl)-1H-benzimidazol-4-yl]-5-hydroxy-2-methylpyridin-4(1H)-one]: the pIC50 under setting [1] is 6.72.

For `O=c1ccn(-c2cccc(-c3cccc4[nH]ncc34)n2)cc1O` [Example 8, 3-Hydroxy-6′-(1H-indazol-4-yl)-4H-1,2′-bipyridin-4-one], the pIC50 under setting [1] is 7.68.

In the case of `CNc1cc(=O)c(O)cn1-c1cccc(-c2ccccc2)c1` [Example 4, 1-(Biphenyl-3-yl)-5-hydroxy-2-(methylamino)pyridin-4(1H)-one], the pIC50 under setting [1] is 7.00.

For `O=c1ccn(-c2nccc(-c3c(Cl)cnc4[nH]ccc34)c2F)cc1O` [Example 9, 4′-(5-chloro-1H-pyrrolo[2,3-b]pyridin-4-yl)-3′-fluoro-3-hydroxy-4H-1,2′-bipyridin-4-one], the pIC50 under setting [1] was 8.10.

For `COc1ncc(F)cc1C(O)Cc1cc(=O)c(O)cn1-c1cccc(-c2ccccc2)c1` (centres unmarked) [Example 11, 1-biphenyl-3-yl-2-[2-(5-fluoro-2-methoxypyridin-3-yl)-2-hydroxyethyl]-5-hydroxypyridin-4(1H)-one], under setting [1], the pIC50 is 7.06.

With `O=c1cc(C(O)C#Cc2ccccc2)n(-c2cccc(-c3c(Cl)cnc4[nH]ccc34)c2)cc1O` (centres unmarked) [Example 12, 1-[3-(5-chloro-1H-pyrrolo[2,3-b]pyridin-4-yl)phenyl]-5-hydroxy-2-(1-hydroxy-3-phenylprop-2-yn-1-yl)pyridin-4(1H)-one], under setting [1], the pIC50 is 7.59.

Turning to `CC(O)c1cc(=O)c(O)cn1-c1cccc(-c2cncc3ccccc23)c1` (centres unmarked) [Example 14, 5-hydroxy-2-(1-hydroxyethyl)-1-[3-(isoquinolin-4-yl)phenyl]pyridin-4(1H)-one], the pIC50 under setting [1] was 6.65.

For the origin of these results see patent US9024032B2, “Inhibitors of catechol O-methyl transferase and their use in the treatment of psychotic disorders” (Merck Sharp & Dohme Corp., priority 2010, dated 2015).
